The values below come from patent US20250304574A1, “3,4,6,7-TETRAHYDRO-2,7-NAPHTHYRIDINE-2(1H)-CARBOXAMIDE DERIVATIVES AS GPR65 INHIBITORS FOR THE TREATMENT OF CANCER AND AUTOIMMUNE DISEASES” (Pathios Therapeutics Limited, priority 2022, published 2025).

Where only a bound is given, the exact number is not on record here.

human recombinant GPR65, sequence (Q8IYL9 whole entry): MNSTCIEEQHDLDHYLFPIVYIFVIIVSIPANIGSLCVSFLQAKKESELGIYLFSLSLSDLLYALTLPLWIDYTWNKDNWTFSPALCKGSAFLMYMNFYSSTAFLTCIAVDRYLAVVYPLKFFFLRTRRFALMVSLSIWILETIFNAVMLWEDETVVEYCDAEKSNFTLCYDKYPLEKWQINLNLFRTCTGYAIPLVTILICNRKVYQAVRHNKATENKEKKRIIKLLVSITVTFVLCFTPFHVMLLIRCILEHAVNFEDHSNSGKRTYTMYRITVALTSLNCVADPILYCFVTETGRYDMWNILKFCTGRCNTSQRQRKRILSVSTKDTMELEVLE

In this experiment the target is human recombinant GPR65 (Homo sapiens, UniProt Q8IYL9). Description: Human GPR65 cAMP HTRF antagonist assay. Format: cell-based. Particulars: 1321N1 cells stably expressing human recombinant GPR65, assay pH 7.2, read-out: hGPR65 IC50. How it is done:
Human GPR65 Cyclic Adenosine Monophosphate (cAMP) Homogeneous Time Resolved Fluorescence (HTRF) Antagonist Assay Procedure
IC50 data was obtained by the following procedure:
1321N1 human astrocytoma cells stably expressing human recombinant GPR65 (1321N1-hrGPR65 cells, EuroscreenFast) were cultured according to the vendor's instructions.
Compounds were tested for their ability to antagonise GPR65, through measuring the concentration of cytoplasmic cAMP following treatment of the cells at a pH of 7.2 to activate GPR65 signalling and addition of the compound to be tested. The extent to which the expected rise in cAMP concentration upon GPR65 activation was suppressed by the added compound is indicative of its potency. The assay was carried out according to EuroscreenFast assay Methodology as follows.
On the day of the assay, test compounds were added to 384-well, low volume, white microtiter plates by acoustic dispensing. KRH buffer (5 mM KCl, 1.25 mM MgSO4, 124 mM NaCl, 25 mM HEPES, 13.3 mM Glucose, 1.25 mM KH2PO4 and 1.45 mM CaCl2) was adjusted to pH 6.5, pH 7.6 and pH 8.4 by adding NaOH. 1321N1-hGPR65 cells were rapidly thawed and diluted in KRH, pH 7.6 prior to centrifugation at 300×g for 5 min and resuspension in assay buffer (KRH, pH 7.6, supplemented with 1 mM 3-isobutyl-1-methylxanthine (IBMX) and 200 μM ethylenediaminetetraacetic acid (EDTA)). Cells were added to assay plates at a density of 2,000 cells per well in a volume of 5 μl. Assay plates were briefly centrifuged at 100×g and then incubated at room temperature for 30 min. Cells were stimulated by the addition of 5 μL KRH, pH 6.5, to achieve an assay pH of 7.2, while control wells received 5 μl KRH, pH 8.4 to achieve an assay pH of 7.9. Assay plates were briefly centrifuged at 100×g and then incubated at room temperature for 30 min.
Accumulation of cAMP was detected by cAMP HTRF kit (Cisbio). d2-labeled cAMP and cryptate-labeled anti-cAMP antibody in Lysis and Detection Buffer (Cisbio) were added to assay plates, and the plates were incubated at room temperature for 1 h. HTRF measurements were performed using a Pherastar FSX instrument. Acceptor and donor emission signals were measured at 665 nm and 620 nm, respectively, and HTRF ratios were calculated as signal665 nm/signal620nm×10^4. Data were normalised to high and low control values and fitted with 4-parameter logistic regression to determine hGPR65 IC50 values for the test compounds, which are shown in Table 1.
(TR-FRET usually uses a lanthanide donor and a delayed reading to cut background.)
For `O=C1NN=C2CN(C(=O)Nc3cc(Cl)c(C(F)(F)F)cc3F)CC=C2N1` [Compound 14, N-(5-Chloro-2-fluoro-4-(trifluoromethyl)phenyl)-3-oxo-2,4,6,8-tetrahydropyrido[4,3-e][1,2,4]triazine-7(3H)-carboxamide], the half-inhibitory concentration (IC50) was 500 to 5000 nM. Consider `O=C(Nc1cc(Cl)c(C(F)(F)F)cc1F)N1CCc2cc(=O)[nH]cc2C1` [Compound 2, N-(5-Chloro-2-fluoro-4-(trifluoromethyl)phenyl)-6-oxo-3,4,6,7-tetrahydro-2,7-naphthyridine-2(1H)-carboxamide], for which the IC50 is < 500 nM. For `O=C(Nc1cc(Cl)c(C(F)(F)F)cn1)N1CCc2cc(F)ncc2C1` [Compound 13, N-(4-Chloro-5-(trifluoromethyl)pyridin-2-yl)-6-fluoro-3,4-dihydro-2,7-naphthyridine-2(1H)-carboxamide] the value was 500 to 5000 nM; for `O=C(Nc1cc(Cl)c(C(F)(F)F)cc1F)N1CCc2c(ccnc2F)C1` [Compound 17, N-(5-Chloro-2-fluoro-4-(trifluoromethyl)phenyl)-5-fluoro-3,4-dihydro-2,6-naphthyridine-2(1H)-carboxamide], < 500 nM.

For the compound `C=C1CN(C(=O)Nc2cc(Cl)c(C(F)(F)F)cc2F)Cc2cnc(F)cc21` [Compound 22, N-(5-Chloro-2-fluoro-4-(trifluoromethyl)phenyl)-6-fluoro-4-methylene-3,4-dihydro-2,7-naphthyridine-2(1H)-carboxamide], the concentration for half-maximal inhibition (IC50) lay in the range of 500 to 5000 nM. For `O=C(Nc1cc(Cl)c(C(F)(F)F)cc1F)N1CCc2cc(F)ccc2C1` [Compound 11, N-(5-Chloro-2-fluoro-4-(trifluoromethyl)phenyl)-6-fluoro-3,4-dihydroisoquinoline-2(1H)-carboxamide] the value was < 500 nM.

Take `C[C@@H]1CN(C(=O)Nc2cc(Cl)c(C(F)(F)F)cc2F)Cc2c[nH]c(=O)cc21` (single isomer, unassigned; isomer 1) [Compound 25, N-(5-chloro-2-fluoro-4-(trifluoromethyl)phenyl)-4-methyl-6-oxo-3,4,6,7-tetrahydro-2,7-naphthyridine-2(1H)-carboxamide isomer 1]: the IC50 was < 500 nM.

With `C=C1CN(C(=O)Nc2cc(Cl)c(C(F)(F)F)cc2F)Cc2ccnc(F)c21` [Compound 24, N-(5-Chloro-2-fluoro-4-(trifluoromethyl)phenyl)-5-fluoro-4-methylene-3,4-dihydro-2,6-naphthyridine-2(1H)-carboxamide], the IC50 is < 500 nM. For `O=C(Nc1cc(Cl)c(C(F)(F)F)cn1)N1CCc2cc(=O)[nH]cc2C1` [Compound 5, N-(4-chloro-5-(trifluoromethyl)pyridin-2-yl)-6-oxo-3,4,6,7-tetrahydro-2,7-naphthyridine-2(1H)-carboxamide] the value was 500 to 5000 nM; for `CC1CN(C(=O)Nc2cc(Cl)c(C(F)(F)F)cc2F)Cc2cnc(F)cc21` (stereo not shown) [Compound 20, N-(5-Chloro-2-fluoro-4-(trifluoromethyl)phenyl)-6-fluoro-4-methyl-3,4-dihydro-2,7-naphthyridine-2(1H)-carboxamide], 500 to 5000 nM. Turning to `O=C(Nc1nnc(C(F)(F)F)s1)N1CCc2cc(Cl)ccc2C1` [Compound 10, 6-Chloro-N-(5-(trifluoromethyl)-1,3,4-thiadiazol-2-yl)-3,4-dihydroisoquinoline-2(1H)-carboxamide], the concentration for half-maximal inhibition (IC50) was < 500 nM. For `O=C(Nc1cc(Cl)c(Cl)cn1)N1CCc2cc(F)ncc2C1` [Compound 12, N-(4,5-Dichloropyridin-2-yl)-6-fluoro-3,4-dihydro-2,7-naphthyridine-2(1H)-carboxamide] the value was 500 to 5000 nM. For `O=C(Nc1cc(Cl)c(C(F)(F)F)cc1F)N1Cc2ccnc(F)c2C(F)C1` (stereo not shown) [Compound 27, N-(5-chloro-2-fluoro-4-(trifluoromethyl)phenyl)-4,5-difluoro-3,4-dihydro-2,6-naphthyridine-2(1H)-carboxamide] the value was < 500 nM; for `CC1CN(C(=O)Nc2cc(Cl)c(C(F)(F)F)cc2F)Cc2c[nH]c(=O)cc21` (racemic) [Compound 21, (±)-N-(5-chloro-2-fluoro-4-(trifluoromethyl)phenyl)-4-methyl-6-oxo-3,4,6,7-tetrahydro-2,7-naphthyridine-2(1H)-carboxamide], < 500 nM; for `O=C(Nc1nnc(C(F)(F)F)s1)N1CCc2cc(=O)[nH]cc2C1` [Compound 7, 6-Oxo-N-(5-(trifluoromethyl)-1,3,4-thiadiazol-2-yl)-3,4,6,7-tetrahydro-2,7-naphthyridine-2(1H)-carboxamide], 500 to 5000 nM. Regarding `O=C(Nc1cc(Cl)c(C(F)(F)F)cc1F)N1CCc2cc(=O)[nH]nc2C1` [Compound 15, N-(5-Chloro-2-fluoro-4-(trifluoromethyl)phenyl)-3-oxo-2,5,6,8-tetrahydropyrido[3,4-c]pyridazine-7(3H)-carboxamide], the IC50 was < 500 nM. As for `O=C(Nc1cc(Cl)c(C(F)(F)F)cn1)N1CCc2c(ccnc2F)C1` [Compound 16, N-(4-chloro-5-(trifluoromethyl)pyridin-2-yl)-5-fluoro-3,4-dihydro-2,6-naphthyridine-2(1H)-carboxamide], the IC50 is < 500 nM. The same measure for `O=C(Nc1nnc(C(F)(F)F)s1)N1CCc2cc(F)ccc2C1` [Compound 9, 6-Fluoro-N-(5-(trifluoromethyl)-1,3,4-thiadiazol-2-yl)-3,4-dihydroisoquinoline-2(1H)-carboxamide]: < 500 nM.

Take `C[C@H]1CN(C(=O)Nc2cc(Cl)c(C(F)(F)F)cc2F)Cc2ccnc(F)c21` (single isomer, unassigned; isomer 2) [Compound 29, N-(5-chloro-2-fluoro-4-(trifluoromethyl)phenyl)-5-fluoro-4-methyl-3,4-dihydro-2,6-naphthyridine-2(1H)-carboxamide isomer 2]: the concentration for half-maximal inhibition (IC50) was < 500 nM. The same measure for `CS(=O)(=O)c1nnc2c(n1)CCN(C(=O)Nc1cc(Cl)c(C(F)(F)F)cc1F)C2` [Compound 18, N-(5-chloro-2-fluoro-4-(trifluoromethyl)phenyl)-3-(methylsulfonyl)-5,8-dihydropyrido[4,3-e][1,2,4]triazine-7(6H)-carboxamide]: 500 to 5000 nM; for `O=C(Nc1cc(Br)c(C(F)(F)F)cc1F)N1CCc2cc(=O)[nH]cc2C1` [Compound 1, N-(5-bromo-2-fluoro-4-(trifluoromethyl)phenyl)-6-oxo-3,4,6,7-tetrahydro-2,7-naphthyridine-2(1H)-carboxamide]: < 500 nM. For `CC1CN(C(=O)Nc2cc(Cl)c(C(F)(F)F)cc2F)Cc2ccnc(F)c21` (stereo not shown) [Compound 23, N-(5-Chloro-2-fluoro-4-(trifluoromethyl)phenyl)-5-fluoro-4-methyl-3,4-dihydro-2,6-naphthyridine-2(1H)-carboxamide] the value was < 500 nM; for `O=C(Nc1cc(Cl)c(Cl)cn1)N1CCc2cc(=O)[nH]cc2C1` [Compound 8, N-(4,5-Dichloropyridin-2-yl)-6-oxo-3,4,6,7-tetrahydro-2,7-naphthyridine-2(1H)-carboxamide], 500 to 5000 nM. For `C[C@H]1CN(C(=O)Nc2cc(Cl)c(C(F)(F)F)cc2F)Cc2c[nH]c(=O)cc21` (single isomer, unassigned; isomer 2) [Compound 26, N-(5-chloro-2-fluoro-4-(trifluoromethyl)phenyl)-4-methyl-6-oxo-3,4,6,7-tetrahydro-2,7-naphthyridine-2(1H)-carboxamide isomer 2] the value was < 500 nM. With `O=C(Nc1cc(Cl)c(Br)cc1F)N1CCc2cc(=O)[nH]cc2C1` [Compound 3, N-(4-Bromo-5-chloro-2-fluorophenyl)-6-oxo-3,4,6,7-tetrahydro-2,7-naphthyridine-2(1H)-carboxamide], the half-maximal inhibitory concentration (IC50) is < 500 nM.

For the compound `O=C(Nc1cc(Cl)c(Cl)cn1)N1CCc2c(ccnc2F)C1` [Compound 19, N-(4,5-Dichloropyridin-2-yl)-5-fluoro-3,4-dihydro-2,6-naphthyridine-2(1H)-carboxamide], the IC50 was < 500 nM. For `O=C(Nc1cc(C(F)(F)F)on1)N1CCc2cc(=O)[nH]cc2C1` [Compound 4, 6-Oxo-N-(5-(trifluoromethyl)isoxazol-3-yl)-3,4,6,7-tetrahydro-2,7-naphthyridine-2(1H)-carboxamide] the value was < 500 nM; for `N#Cc1ccc2c(c1)CCN(C(=O)Nc1cc(C(F)(F)F)on1)C2` [Compound 6, 6-Cyano-N-(5-(trifluoromethyl)isoxazol-3-yl)-3,4-dihydroisoquinoline-2(1H)-carboxamide], 500 to 5000 nM.

The term IC50 denotes the concentration that gives 50% inhibition.
